Data from US9540389B2, “Antimicrobial potentiators” (priority 2013, dated 2017).

Columns and labels:
[1] = tested on: Escherichia coli 285 (AB1157, CIPR, overexpresses efflux); experiment: microbe, parasite or virus in culture; assay type: cell-based
From the text: (§1) • Strains and Reagents. The following strains were obtained from the Keio collection (Baba, et al.: Construction of Escherichia coli K-12 in-frame, single-gene knockout mutants: the Keio collection. In Mol Syst Biol, vol. 2, pp. 2006 0008, (2006)): JW0451 (ΔacrB::kan), JW5503 (ΔtolC::kan), JW3234 (ΔacrF::kan), JW2661 (ΔemrB::kan), JW0863 (ΔmacB::kan). The deletion mutations in each of these strains were transferred to AB1157 using P1 phage transduction (see Table 1). The construction of the E. coli cell-based reporter strain (SOS-XXX) that was used for high throughput screening is described in detail in the supplementary information. […] Irgasan was a generous gift from Ciba Speciality Chemicals, Inc. (High Point, N.C.). Hoechst 33342 (H33342) was purchased from Molecular Probes (Eugene, Oreg.). […] Luria Broth (Miller) and agar were purchased as prepared dehydrated media from Becton Dickenson (Franklin Lakes, N.J.). The compound libraries used in high-throughput screens were purchased from Chembridge (San Diego, Calif.), ChemDiv (San Diego, Calif.), and TimTec (Newark, Del.). MBX2319 was synthesized by Microbiotix, Inc. • Antibacterial Activity Assays. The minimal inhibitory concentration (MIC) of antibacterial agents and biocides were determined using the microbroth dilution method essentially as described in the CLSI protocol M7-A7 (CLSI: Method for dilution antimicrobial susceptibility testing for bacteria that grow aerobically; Approved standard-document M7-A7. In Clinical and Laboratory Standards Institute document M7-A7, Clinical and Laboratory Standards Institute, Wayne, Pa., (2006)), with the following exceptions. LB media was used instead of MHB. […] The final concentration of DMSO in each assay was 2%. […] MIC assays were performed in triplicate and the geometric mean was calculated. Checkerboard MIC assays using an EPI and an antibacterial agent were performed essentially as described (Pillai, et al.: Antimicrobial Combinations. In Antibiotics in Laboratory Medicine, ed. by V. Lorian, pp. 365-440, Lippincott Williams & Wilkins, Philadelphia, Pa., (2005)), with the same modifications used for the MIC assays described above. • Time-Kill Assays. Killing curve assays were performed essentially as described (Pillai, et al.: Antimicrobial Combinations. In Antibiotics in Laboratory Medicine, ed. by V. Lorian, pp. 365-440, Lippincott Williams & Wilkins, Philadelphia, Pa., (2005)). Exponential bacterial cultures grown in LB were diluted to a cell density of ˜1×10^7 in LB followed by addition of CIP and/or an EPI. Viability was monitored over 2-4 hours by making serial dilutions in saline and spotting 5 μl of each dilution onto the surface of an LB agar plate in triplicate. Colonies were counted after the plates were incubated at 37° C. for 16-18 hr, colony forming units (CFU) per ml were calculated, and the average and standard deviation for the three replicates was determined. For treatments that decreased CFU/ml below the limit of detection for the spot plating method, the 100 μl samples were diluted into 5 ml LB top agar, were poured onto LB agar plates, and incubated for 18 hr at 37° C. To calculate the fraction of the control for each sample, the average CFU/ml values for treated samples were divided by those from the same sample at 0 h (time=0). Each experiment was repeated at least three times, and a representative experiment is shown. • H33342 Accumulation Assay. The rate of accumulation of the fluorescent dye Hoechst 33342 (H33342), which is a substrate of a wide variety of bacterial efflux pumps (van den Berg van Saparoea, et al., Biochemistry, vol. 44, pp. 16931-16938, (2005)), can be used to estimate the activity of the major efflux pumps in E. coli and many other bacterial species. The H33342 accumulation assay was used to evaluate the effect of EPIs on the activity of the AcrAB-TolC efflux pump in several bacterial species essentially as described (Coldham, et al., J Antimicrob Chemother, vol. 65, pp. 1655-1663, (2010)). […]

[2] = tested on: Escherichia coli 287 (AB1157, CIPR, overexpresses efflux); experiment: microbe, parasite or virus in culture; assay type: cell-based
From the text: as §1

[3] = tested on: Enterobacter aerogenes ATCC 13048; experiment: MIC assay (microbroth dilution) ± 25 μM EPI; assay type: cell-based
From the text: as §1

Escherichia coli 331 = experiment: MIC assay (microbroth dilution) ± 25 μM EPI; assay type: cell-based; details: E. coli 331
From the text: as §1

Escherichia coli AB1157 = experiment: MIC assay (microbroth dilution) ± 25 μM EPI; assay type: cell-based
From the text: as §1

[4] = tested on: Escherichia coli ATCC 25922; experiment: MIC assay (microbroth dilution) ± 25 μM EPI; assay type: cell-based
From the text: as §1

[5] = tested on: Klebsiella pneumoniae ATCC 700603; experiment: MIC assay (microbroth dilution) ± 25 μM EPI; assay type: cell-based
From the text: as §1

[6] = tested on: Salmonella enterica ATCC 14028; experiment: MIC assay (microbroth dilution) ± 25 μM EPI; assay type: cell-based
From the text: as §1

[7] = tested on: Shigella flexneri ATCC 12022; experiment: MIC assay (microbroth dilution) ± 25 μM EPI; assay type: cell-based
From the text: as §1

P. aeruginosa ATCC 27853 = experiment: MIC assay (microbroth dilution) ± 25 μM EPI; assay type: cell-based, Pseudomonas aeruginosa
From the text: as §1

[8] = Escherichia coli, read-out: MIC (μg/ml) with MBX2319 at concn (μM) of: 0

CO/N=C(\C(=O)N[C@@H]1C(=O)N2C(C(=O)O)=C(COC(C)=O)CS[C@H]12)c1csc(N)n1 [CEF, cefotaxime]
MIC (μg/ml) with MBX2319 at concn (μM) of: 3.13 ([1]; 285, MBX2319 3.13 μM): 0.063 µg/mL | MIC (μg/ml) with MBX2319 at concn (μM) of: 6.25 ([1]; 285, MBX2319 6.25 μM): 0.063 µg/mL | MIC (μg/ml) with MBX2319 at concn (μM) of: 25 ([1]; 285, MBX2319 25 μM): 0.031 µg/mL | MIC (μg/ml) with MBX2319 at concn (μM) of: 50 ([1]; 285, MBX2319 50 μM): 0.031 µg/mL | MIC [1, 8]: 0.25 µg/mL | MIC (μg/ml) with MBX2319 at concn (μM) of: 6.25 ([2]; 287, MBX2319 6.25 μM): 0.063 µg/mL | MIC (μg/ml) with MBX2319 at concn (μM) of: 25 ([2]; 287, MBX2319 25 μM): 0.063 µg/mL | MIC (μg/ml) with MBX2319 at concn (μM) of: 50 ([2]; 287, MBX2319 50 μM): 0.063 µg/mL | MIC [2, 8]: 0.25 µg/mL | MIC (μg/ml) ± EPI: MBX2319 ([3]; + 25 μM MBX2319): 2.4 µg/mL | MIC (μg/ml) ± EPI: PAβN ([3]; + 25 μM PAβN): 6.7 µg/mL | MIC ([3]; Klebsiella aerogenes, ATCC13048, no EPI, read-out: MIC (μg/ml) ± EPI: None): 2 µg/mL | MIC (μg/ml) ± EPI: MBX2319 (Escherichia coli 331; + 25 μM MBX2319): 0.031 µg/mL | MIC (μg/ml) ± EPI: PAβN (Escherichia coli 331; + 25 μM PAβN): 0.353 µg/mL | MICs (μg/ml) ± EPIs: MBX2319 (Escherichia coli AB1157; E. coli AB1157 (WT), + 25 μM MBX2319, geometric mean): 0.022 µg/mL | MICs (μg/ml) ± EPIs: PAβN (Escherichia coli AB1157; E. coli AB1157 (WT), + 25 μM PAβN, geometric mean): 0.25 µg/mL | MIC (Escherichia coli AB1157; Escherichia coli, AB1157, read-out: MICs (μg/ml) ± EPIs: None): 0.1 µg/mL | MIC (μg/ml) ± EPI: MBX2319 ([4]; E. coli ATCC 25922, + 25 μM MBX2319): 0.063 µg/mL | MIC (μg/ml) ± EPI: PAβN ([4]; E. coli ATCC 25922, + 25 μM PAβN): 0.25 µg/mL | MIC ([4]; Escherichia coli, ATCC25922, read-out: MIC (μg/ml) ± EPI: None): 0.074 µg/mL | MIC (μg/ml) ± EPI: MBX2319 ([5]; + 25 μM MBX2319): 8 µg/mL | MIC (μg/ml) ± EPI: PAβN ([5]; + 25 μM PAβN): 8 µg/mL | MIC ([5]; ATCC700603, no EPI, read-out: MIC (μg/ml) ± EPI: None): 8 µg/mL | MIC (μg/ml) ± EPI: MBX2319 ([6]; + 25 μM MBX2319): 0.063 µg/mL | MIC (μg/ml) ± EPI: PAβN ([6]; + 25 μM PAβN): 0.297 µg/mL | MIC ([6]; ATCC14028, no EPI, read-out: MIC (μg/ml) ± EPI: None): 0.21 µg/mL | MIC (μg/ml) ± EPI: MBX2319 ([7]; Shigella flexneri ATCC 12022, + 25 μM MBX2319): 0.031 µg/mL | MIC (μg/ml) ± EPI: PAβN ([7]; Shigella flexneri ATCC 12022, + 25 μM PAβN): 0.063 µg/mL | MIC ([7]; Shigella flexneri, ATCC12022, read-out: MIC (μg/ml) ± EPI: None): 0.063 µg/mL | MIC (μg/ml) ± EPI: MBX2319 (P. aeruginosa ATCC 27853; + 25 μM MBX2319): 8 µg/mL | MIC (μg/ml) ± EPI: PAβN (P. aeruginosa ATCC 27853; + 25 μM PAβN): 19 µg/mL | MIC (P. aeruginosa ATCC 27853; Pseudomonas aeruginosa, ATCC27853, no EPI, read-out: MIC (μg/ml) ± EPI: None): 53.8 µg/mL
